Laboratory results from patent US20250145608A1, “KRAS DEGRADING COMPOUNDS COMPRISING ANNULATED 2-AMINO-3-CYANO THIOPHENES” (Boehringer Ingelheim Int'l GmbH Corp., priority 2021, published 2025).
Like-named read-outs stand apart in the source and are kept apart here.

Legend:
Type in all cases: cell-based
NCI-H358 cells = test: NCI-H358 CTG proliferation assay (120 h) (NSCLC, G12C); settings: Homo sapiens
Experimental: NCI-H358 CTG Proliferation Assay (120 h) (NSCLC, G12C)
NCI-H358 cells (ATCC No. CRL-5807) are dispensed into white bottom opaque 96 well plates (Perkin Elmer cat no. 5680) at a density of 2000 cells per well in 100 μL RPMI-1640 ATCC-Formulation (Gibco #A10491)+10% FCS (fetal calf serum) (assay 1) or into black 384-well plates, flat and clear bottom (Greiner, PNr. 781091) at a density of 200 cells per well in 60 μl RPMI-1640 ATCC-Formulation (Gibco #A10491)+10% FCS (fetal calf serum) (assay 2). […] Compounds (10 mM stock in DMSO) are added at logarithmic dose series using the HP Digital Dispenser D300 (Tecan) (assay 1) or the ECHO acoustic liquid handler system (Beckman Coulter) (assay 2), normalizing for added DMSO and including DMSO controls. For the TO time point measurement, untreated cells are analyzed at the time of compound addition. Plates are incubated for 120 h, and cell viability is measured using CellTiter-Glo luminescent cell viability reagent (Promega product code G7570). Viability (stated as percent of control) is defined as relative luminescence units RLU of each well divided by the RLU of cells in DMSO controls. IC50 values are determined from viability measurements by non-linear regression using a four parameter model.

KRAS(G12D) = biological target: T1, KRAS(G12D) (Homo sapiens, UniProt P01116, G12D); test: HiBit degradation assay in GP5d-HiBit-KRAS(G12D) cells (18 h; DC50, Dmax)
T1 construct: introduced immediately downstream of the initiating Methionine codon of the endogenous KRAS locus; host or cells: GP5d-HiBit-KRAS(G12D), a CRISPR knock-in at the endogenous locus
T1 sequence (P01116 1-188 isoform P01116-2 G12D): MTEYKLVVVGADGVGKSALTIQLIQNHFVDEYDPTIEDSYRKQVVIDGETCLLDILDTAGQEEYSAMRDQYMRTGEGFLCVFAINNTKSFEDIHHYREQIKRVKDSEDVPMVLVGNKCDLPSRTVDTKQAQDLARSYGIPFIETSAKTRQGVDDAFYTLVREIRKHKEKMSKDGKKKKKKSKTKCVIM
Experimental: A HiBit protein detection tag (amino acid sequence […], Seq ID No 1) was introduced immediately downstream of the initiating Methionine codon of the endogenous KRAS locus (Ensembl gene ID ENSG00000133703.7) of GP5d cells (ECACC Cat. No. 95090715) by CRISPR-based genome engineering using a KRAS(G12D) mutant donor construct encoding the HiBit tag. […] Correct modification of the KRAS locus was assessed by PCR-based genotyping and Sanger sequencing of the isolated PCR products. The resulting cell line is referred to as GP5d-HiBit-KRAS(G12D).
To assess PROTAC-mediated degradation of KRAS(G12D), GP5d-HiBit-KRAS(G12D) cells were seeded at 25000 cells per well in 100 μL Dulbecco's Modified Eagle medium (Sigma cat. no. D6429) supplemented with 10% fetal calf serum into white bottom opaque 96 well plates (Perkin Elmer cat no. 5680). Plates were incubated at 37° C., 5% CO2 in a humidified incubator over night to allow the cells to adhere. […] Plates were further incubated at 37° C. for 18 hours. Following incubation, 100 μL per well Promega Nano-Glo HiBit lytic detection reagent mix (Promega Nano-Glo HiBit Lytic Detection System #N3050), prepared according to the manufacturer's instructions in the kit, were added. To allow for adequate cell lysis, plates were incubated on an orbital shaker for 15 min and further incubated 30 min at room temperature. Upon completion of cell lysis, luminescence was measured using an Envision plate reader using the Ultrasensitive Luminescence Protocol for 96 well plates. Luminescence levels were normalized by the values obtained with DMSO-treated samples and plotted as percent of DMSO control. DC50 values were computed using a four parametric logistic model. Dmax values represent the maximal extent of degradation observed and is stated as percent of control (% Ctrl.) treatments. DC50 and Dmax are reported in Table 64 for representative compounds of the invention.

SW620 cells = test: SW620 cell proliferation assay (colorectal cancer, G12V), 5 days; settings: Homo sapiens, SW-620, 120 h
Experimental: SW620 Cell Proliferation Assay (Colorectal Cancer, G12V)
(§1) SW620 cells (ATCC CCL-227) are dispensed into white bottom opaque 96 well plates (Perkin Elmer cat no. 5680) at a density of 2000 cells per well in 100 μL DMEM (BioWhittaker, Cat #BE12-605F) supplemented with 10% FCS. […] Compounds (10 mM stock in DMSO) are added at logarithmic dose series using the HP Digital Dispenser D300 (Tecan), normalizing for added DMSO. For the TO time point measurement, untreated cells are analysed at the time of compound addition. Plates are incubated for 5 days, and cell viability is measured using CellTiter-Glo luminescent cell viability reagent (Promega, Cat. No G7570). Viability (stated as percent of control) is defined as relative luminescence units RLU of each well divided by the RLU of cells in DMSO controls. IC50 values were computed from relative viability values using a four parametric logistic model.

GP5d cells = test: GP5d cell proliferation assay (colorectal cancer, G12D), 5 days; settings: Homo sapiens, 120 h
Experimental: GP5d Cell Proliferation Assay (Colorectal Cancer, G12D)
as §1, with “GP5d” for “SW620”, “(ECACC 95090715)” for “(ATCC CCL-227)”, “plates” for “plates (Perkin Elmer cat no. 5680)”, “5000” for “2000”

[1] = assay 2, read-out: H358 (assay 2) IC50
[2] = assay 1, read-out: H358 (assay 1) IC50

| SMILES | IC50 (NCI-H358 cells; [1]) | DC50 (KRAS(G12D)) | Dmax 18 h (KRAS(G12D)) | IC50 (SW620 cells) | IC50 (NCI-H358 cells; [2]) | IC50 (GP5d cells) |
| --- | --- | --- | --- | --- | --- | --- |
| Cc1ncsc1-c1ccc(CNC(=O)[C@@H]2C[C@@H](O)CN2C(=O)C(c2cc(OCCOCCN3CCCN(c4nccc(-c5noc([C@@]6(C)CCCc7sc(N)c(C#N)c76)n5)n4)[C@@H](C)C3)no2)C(C)C)cc1 (some centres unmarked) [I-14] | 843 nM | 76 nM | 80 % Ctrl |  |  |  |
| Cc1ncsc1-c1ccc(CNC(=O)[C@@H]2C[C@@H](O)CN2C(=O)C(c2cc(OCCCCN3CCCN(c4nccc(-c5noc([C@@]6(C)CCCc7sc(N)c(C#N)c76)n5)n4)[C@@H](C)C3)no2)C(C)C)cc1 (some centres unmarked) [I-3] | 60.7 nM | 2.7 nM | 91 % Ctrl | 13.1 nM | 66 nM | 6.14 nM |
| Cc1ncsc1-c1ccc(CNC(=O)[C@@H]2C[C@@H](O)CN2C(=O)[C@H](c2cc(OCCCCN3CCCN(c4nccc(-c5noc([C@@]6(C)CCCc7sc(N)c(C#N)c76)n5)n4)[C@@H](C)C3)no2)C(C)C)cc1 (single isomer, unassigned) [I-26] | 435 nM | 101 nM | 77 % Ctrl | 265 nM | 485 nM | 133 nM |
| CC(C)C(C(=O)N1C[C@H](O)C[C@H]1C(=O)NCc1ccc(Br)cc1)c1cc(OCCCCN2CCCN(c3nccc(-c4noc([C@@]5(C)CCCc6sc(N)c(C#N)c65)n4)n3)[C@@H](C)C2)no1 (some centres unmarked) [I-7] | 180 nM | 11 nM | 89 % Ctrl | 55.9 nM | 480 nM | 23.4 nM |
| Cc1ncsc1-c1ccc(CNC(=O)[C@@H]2C[C@@H](O)CN2C(=O)C(C(C)C)n2cc(CCCCCN3CCCN(c4nccc(-c5noc([C@@]6(C)CCCc7sc(N)c(C#N)c76)n5)n4)[C@@H](C)C3)nn2)cc1 (some centres unmarked) [I-34] | 43.8 nM | 10.6 nM | 91 % Ctrl | 51.3 nM | 160 nM | 21.7 nM |
| CC(C)C(C(=O)N1C[C@H](O)C[C@H]1C(=O)NCc1ccc(Cl)cc1)c1cc(OCCCCN2CCCN(c3nccc(-c4noc([C@@]5(C)CCCc6sc(N)c(C#N)c65)n4)n3)[C@@H](C)C2)no1 (some centres unmarked) [I-20] | 377 nM | 8.6 nM | 89 % Ctrl | 83.9 nM | 439 nM | 92.4 nM |
| Cc1ncsc1-c1ccc([C@H](CCOP(=O)(O)O)NC(=O)[C@@H]2C[C@@H](O)CN2C(=O)[C@H](C(C)C)n2cc(OCCCCN3CCCN(c4nccc(-c5noc([C@@]6(C)CCCc7sc(N)c(C#N)c76)n5)n4)[C@@H](C)C3)nn2)cc1 [I-39] | 57 nM | 7.7 nM | 87 % Ctrl |  |  |  |
| Cc1ncsc1-c1ccc(CNC(=O)[C@@H]2C[C@@H](O)CN2C(=O)[C@@H](NC(=O)COCCCN2CCCN(c3nccc(-c4noc([C@@]5(C)CCCc6sc(N)c(C#N)c65)n4)n3)[C@@H](C)C2)C(C)(C)C)cc1 [I-48] |  | 523 nM | 85 % Ctrl | 803 nM | 3550 nM | 2630 nM |
| CC(C)C(C(=O)N1C[C@H](O)C[C@H]1C(=O)NCc1ccc(-n2cncn2)cc1)c1cc(OCCCCN2CCCN(c3nccc(-c4noc([C@@]5(C)CCCc6sc(N)c(C#N)c65)n4)n3)[C@@H](C)C2)no1 (some centres unmarked) [I-17] | 89.5 nM | 3.3 nM | 93 % Ctrl |  |  |  |
| Cc1ncsc1-c1ccc(CNC(=O)[C@@H]2C[C@@H](O)CN2C(=O)C(c2cc(OCCCN3CCCN(c4nccc(-c5noc([C@@]6(C)CCCc7sc(N)c(C#N)c76)n5)n4)[C@@H](C)C3)no2)C(C)C)cc1 (some centres unmarked) [I-1] | 96.5 nM | 6.4 nM | 94 % Ctrl | 27.3 nM | 151 nM | 22.2 nM |
| Cc1ncsc1-c1ccc([C@@H](NC(=O)[C@@H]2C[C@@H](O)CN2C(=O)[C@@H](C(C)C)n2cc(OCCCCN3CCCN(c4nccc(-c5noc([C@@]6(C)CCCc7sc(N)c(C#N)c76)n5)n4)[C@@H](C)C3)nn2)[C@H](O)C(C)C)cc1 (single isomer, unassigned) [I-44] | 604 nM | 49.7 nM | 88 % Ctrl |  |  |  |
| CC(C)c1ccc(CNC(=O)[C@@H]2C[C@@H](O)CN2C(=O)C(c2cc(OCCCCN3CCCN(c4nccc(-c5noc([C@@]6(C)CCCc7sc(N)c(C#N)c76)n5)n4)[C@@H](C)C3)no2)C(C)C)cc1 (some centres unmarked) [I-23] | 527 nM | 76.7 nM | 82 % Ctrl | 267 nM | 1150 nM | 857 nM |
| Cc1ncsc1-c1ccc([C@@H](NC(=O)[C@@H]2C[C@@H](O)CN2C(=O)[C@@H](C(C)C)n2cc(OCCCN3CCCN(c4nccc(-c5noc([C@@]6(C)CCCc7sc(N)c(C#N)c76)n5)n4)[C@@H](C)C3)nn2)[C@H](O)C(C)C)cc1 (single isomer, unassigned) [I-42] | 1920 nM | 462 nM | 74 % Ctrl |  |  |  |
| Cc1ncsc1-c1ccc(CNC(=O)[C@@H]2C[C@@H](O)CN2C(=O)C(c2cc(OCCCN3CCCN(c4ccnc(-c5noc([C@@]6(C)CCCc7sc(N)c(C#N)c76)n5)n4)[C@@H](C)C3)no2)C(C)C)cc1 (some centres unmarked) [I-21] | 81.3 nM | 41.1 nM | 90 % Ctrl |  |  |  |
| Cc1ncsc1-c1ccc(CNC(=O)[C@@H]2C[C@@H](O)CN2C(=O)C(c2cc(OCCCCN3CCCN(c4ccnc(-c5noc([C@@]6(C)CCCc7sc(N)c(C#N)c76)n5)n4)[C@@H](C)C3)no2)C(C)C)cc1 (some centres unmarked) [I-22] | 97.5 nM | 48.8 nM | 92 % Ctrl |  |  |  |
| Cc1ncsc1-c1ccc(CNC(=O)[C@@H]2C[C@@H](O)CN2C(=O)C(c2cc(OC/C=C/CN3CCCN(c4nccc(-c5noc([C@@]6(C)CCCc7sc(N)c(C#N)c76)n5)n4)[C@@H](C)C3)no2)C(C)C)cc1 (some centres unmarked) [I-15] | 122 nM | 9.8 nM | 90 % Ctrl |  |  |  |
| Cc1ncsc1-c1ccc([C@@H](NC(=O)[C@@H]2C[C@@H](O)CN2C(=O)[C@@H](C(C)C)n2cc(OCCCCN3CCCN(c4nccc(-c5noc([C@@]6(C)CCCc7sc(N)c(C#N)c76)n5)n4)[C@@H](C)C3)nn2)[C@H](C)O)cc1 (single isomer, unassigned) [I-40] | 2720 nM | 970 nM | 61 % Ctrl |  |  |  |
